This is an account of results in US10765644B2, “Methods for the treatment of hepatitis C” (priority 2015, dated 2020).

The structures appear in SMILES notation.

In one series the test system is HCV GT1B replicon. Description: HCV replicon assay (antiviral, luciferase / qRT-PCR endpoint). It is filed as cell-based, hepatitis C virus. As to the method: Stable HCV replicons of different genotypes may be used for anti-HCV evaluation.
The HCV replicon antiviral evaluation assay examined the effects of compounds at six serial dilutions. Human interferon alpha-2b (rIFNα-2b) and/or Sofosbuvir were included in each run as a positive control compound.
(§1) Briefly, the replicon cells were plated at 5,000 cells/well into 96-well plates that were dedicated for the analysis of cell numbers (cytotoxicity) or antiviral activity. On the following day, samples were diluted with assay media and added to the appropriate wells. Cells were processed 72 hours later when the cells were still sub-confluent. For the luciferase endpoint assay, HCV replicon levels were assessed as replicon-derived Luc activity. The concentration of drug that reduced cell viability was assessed by the fluorometric CytoTox-1 cell proliferation assay (Promega), (expressed as cell numbers). For the qRT-PCR/TaqMan assay, total RNA was extracted from the replicon cells using RNeasy 96 kit (Qiagen) according to the manufacturer's protocol. Real-time RTPCR/TaqMan assays were performed to measure copy numbers of the replicon RNA and cellular ribosomal RNA. Where applicable EC50 (concentration inhibiting HCV replicon by 50%), EC90 (concentration inhibiting HCV replicon by 90%), CC50 (concentration decreasing cell viability by 50%), CC90 (concentration decreasing cell viability by 90%) and SI (selectivity indices: CC50/EC50 and CC90/EC90) values were derived.
For orientation: Replicon systems follow genome replication, usually without infectious particles.

Series [1] can be described thus: HCV replicon assay, cytotoxicity (CytoTox-1 cell proliferation assay). It is filed as cell-based. The note with it: HCV replicon cells, In vitro HCV replicon assay, post infection, read-out: CC50 (concentration decreasing cell viability by 50%). How it is done:
as §1

Series [2] has as its system cell culture-derived HCV (HCVcc). The series is described as follows: microbe, parasite or virus in culture. It counts as cell-based, hepatitis C virus. How it is done:
(§2) Huh7.5 cells were grown in Dulbecco's modified essential media (DMEM), 10% fetal bovine serum (FBS), 1% penicillin-streptomycin (pen-strep), 1% Non-essential amino acids (NEAA) in a 5% CO2 incubator at 37° C. Huh7.5 cells were seeded at 1×10^4 cells per well into 96-well plates according to Southern Research Institute standard format. Test articles were serially diluted with DMEM plus 5% FBS. The diluted compound in the amount of 50 μl was mixed with equal volume of cell culture-derived HCV (HCVcc), then applied to appropriate wells in the plate. Human interferon alpha-2b (rIFNα-2b) and/or Sofosbuvir were included as a positive control. After 72 hr incubation at 37° C., the cells were lysed for measurement of luciferase activity using Renilla Luciferase Assay System (Promega) according to manufacturer's instruction. The number of cells in each well were determined by CytoTox-1 reagent (Promega). Test articles were tested at 6 serial dilutions in triplicate to derive, if applicable, EC50 and EC90 (concentration inhibiting HCVcc infectivity by 50% and 90%, respectively), CC50 (concentration decreasing cell viability by 50%) and SI (selectivity index: CC50/EC50) values (Table 1).

A short description of the next series: in vitro. It counts as cell-based. The conditions noted are these: human. How it is done: as §2

In the case of `CC[C@H](c1ccc(O)cc1)[C@@H](CC)c1ccc(O)cc1` [Hexestrol, meso 3,4-bis(4-hydroxyphenyl)hexane], the “anti-Hepatitis C activity (in words)” value (with HCV GT1B replicon (HCV replicon assay); in series [2] (Hepatitis C viral infectivity assay)) was “significant anti-Hepatitis C activity” each time. The EC50 with HCV GT1B replicon (Hepatitis C virus, GT1B, 72 h, read-out: EC50 (concentration inhibiting HCV replicon by 50%)) came to 10.9 µM; in series [2] (Hepatitis C virus, Huh7.5, 72 h, read-out: EC50 (concentration inhibiting HCVcc infectivity by 50%)), 2.85 µM. Besides, the “Selectivity index (CC50/EC50)” value is 2.51 in the series on HCV GT1B replicon (In vitro HCV replicon assay) and 14.2 in series [2] (In vitro HCVcc assay). Further, the CC50 at 72 h was 27.4 µM in series [1] and 50.4 µM in the series “in vitro”.
